US8962600B2, “Neuroprotective compounds and their use” (The Medical College of Wisconsin, Inc., priority 2009, dated 2015)

Test system: mouse primary microglia
Assay: LPS-induced iNOS activation (nitrite, Griess reagent) in primary microglia
Assay type: cell-based
Conditions: diapocynin 10 μM, 30 min pretreatment, LPS 24 hr
Description: Primary microglia were obtained from 1-2 day old C57/b16 mouse pups. Upon collection, whole brains were kept in ice-cold DMEM-F12 medium containing 10% FBS, 1× sodium pyruvate, 1× NEAAs, 100 units pen/strep, and Q. After collection, the brains were placed in 0.25% trypsin-EDTA and incubated at 37° C., with gentle shaking every 5-10 min. After 30 min, the trypsin was removed, and the brains are washed in warmed medium twice. After washing, medium was added to the brains, and the brains were homogenized using gentle pipetting, starting with a 25 ml pipette and moving to smaller pipette tips as the brains were broken up. When the brains were sufficiently homogenized to a single-cell suspension, they were filtered with a 70 μm nylon filter, which allowed microglia and astrocytes to be collected. The resultant cell suspension was plated in T-75 flasks and allowed to grow for 12-14 days at 37° C., 5% CO2. Microglia were collected using an Easy Sep Magnet (Stemcell Technologies, Vancouver, BC, Canada) (68-69) and plated on poly-D-lysine-coated plates and allowed to attach for 2-4 days before treatment.
Inducible nitric oxide synthase (iNOS or NOS2) activation was assessed by measuring nitrite levels using Griess reagent in a 96-well format (70-72). […] The plate was shaken on a plate shaker for 10 min before being read in a plate reader at 540 nm.

COc1cc(C(C)=O)cc(-c2cc(C(C)=O)cc(OC)c2O)c1O [diapocynin]
attenuating LPS-induced iNOS activation, compared with apocynin 100 μM: just as effective
